Nine molecules from US5576429A, “5-substituted pyrimidine nucleosides and nucleotides” (Medivir AB, priority 1988, dated 1996) can be followed below.

Series [1] deals with T1, Hepatit B virus DNA polymerase (Hepatitis B virus genotype D subtype ayw, UniProt P03156).
T1 construct: The HBV-DNAP was prepared from virus obtained from human serum; from tissue; host or cells: hepatitis B virus particles from human serum, solubilized with Nonidet P40
In words: Test III Inhibition of HBV DNA polymerase by triphosphates. In kind it is biochemical. Conditions: virus preparation from human serum, endogenous nucleic acid as template; read-out: Concentration for 50% inhibition (IC50) of HBV DNAP. From the text: (§1) Test III Inhibition of reverse transcriptases and DNA polymerases by triphosphates of compounds of the invention
(§2) The 5'-triphosphates were synthesized essentially as described (Yoshikawa, M, Kato T, Takenishi T, Bull. Chem. Soc. (Japan), 42,3505-3508, 1969; Ludwig, J., Acta Biochim. Biophys. Acad. Sci. Hung. 16, 131-133, 1981; Ruth, J. L., Cheng, Y. C., Mol. Pharmacol. 20, 415 1981.) The HIV-RT was obtained as described by Hansen et al (Hansen J, Schulze T and Moelling K, J. Biol. Chem. 262, 12393-12396, 1987) from culture of Escherichia coli expressing the cloned HIV-pol gene. The HBV-DNAP was prepared from virus obtained from human serum, essentially as described by Nordenfelt et al (1987) [Nordenfelt E, Lofgren B, Chattopadhyaya J., Oberg B, J. Med. Virol. 22, 231-236, 1987]. The HSV-2 DNAP and cellular DNAPα preparation and reaction conditions have been described by Larsson et al [Larsson A, Sundqvist A, Parnerud A-M, 1986, Mol. Pharmacol. 29, 614-621]. […] The hepatitis B virus enzyme activity was determined with a virus preparation solubilized by non-idet P40, and endogenous nucleic acid as template, as described by Nordenfelt et al (vide supra)

The target in series [2] is Herpes simplex virus type 2 DNA polymerase (Human herpesvirus 2, UniProt P89453). In words: Test III Inhibition of HSV-2 DNA polymerase by triphosphates. In kind it is biochemical. To be noted: read-out: Concentration for 50% inhibition (IC50) of HSV-2 DNAP.
Source text: as §1, §2

Series [3] deals with T2, Human immuno deficiency virus reverse transcriptase (Human immunodeficiency virus type 1 group M subtype B, UniProt P04585).
T2 construct: Human immuno deficiency virus reverse transcriptase; made in house; host or cells: Escherichia coli
As to the kind of experiment: Test III Inhibition of HIV reverse transcriptase by triphosphates. Format: biochemical. To be noted: template (rA)n(dT)12-18, substrate dTTP; read-out: Concentration for 50% inhibition (IC50) of HIV RT.
Source text: as §1, §2

For the next series, the target named is T3, DNA polymerase alpha (Homo sapiens, UniProt P09884).
T3 sequence (P09884 1-1462): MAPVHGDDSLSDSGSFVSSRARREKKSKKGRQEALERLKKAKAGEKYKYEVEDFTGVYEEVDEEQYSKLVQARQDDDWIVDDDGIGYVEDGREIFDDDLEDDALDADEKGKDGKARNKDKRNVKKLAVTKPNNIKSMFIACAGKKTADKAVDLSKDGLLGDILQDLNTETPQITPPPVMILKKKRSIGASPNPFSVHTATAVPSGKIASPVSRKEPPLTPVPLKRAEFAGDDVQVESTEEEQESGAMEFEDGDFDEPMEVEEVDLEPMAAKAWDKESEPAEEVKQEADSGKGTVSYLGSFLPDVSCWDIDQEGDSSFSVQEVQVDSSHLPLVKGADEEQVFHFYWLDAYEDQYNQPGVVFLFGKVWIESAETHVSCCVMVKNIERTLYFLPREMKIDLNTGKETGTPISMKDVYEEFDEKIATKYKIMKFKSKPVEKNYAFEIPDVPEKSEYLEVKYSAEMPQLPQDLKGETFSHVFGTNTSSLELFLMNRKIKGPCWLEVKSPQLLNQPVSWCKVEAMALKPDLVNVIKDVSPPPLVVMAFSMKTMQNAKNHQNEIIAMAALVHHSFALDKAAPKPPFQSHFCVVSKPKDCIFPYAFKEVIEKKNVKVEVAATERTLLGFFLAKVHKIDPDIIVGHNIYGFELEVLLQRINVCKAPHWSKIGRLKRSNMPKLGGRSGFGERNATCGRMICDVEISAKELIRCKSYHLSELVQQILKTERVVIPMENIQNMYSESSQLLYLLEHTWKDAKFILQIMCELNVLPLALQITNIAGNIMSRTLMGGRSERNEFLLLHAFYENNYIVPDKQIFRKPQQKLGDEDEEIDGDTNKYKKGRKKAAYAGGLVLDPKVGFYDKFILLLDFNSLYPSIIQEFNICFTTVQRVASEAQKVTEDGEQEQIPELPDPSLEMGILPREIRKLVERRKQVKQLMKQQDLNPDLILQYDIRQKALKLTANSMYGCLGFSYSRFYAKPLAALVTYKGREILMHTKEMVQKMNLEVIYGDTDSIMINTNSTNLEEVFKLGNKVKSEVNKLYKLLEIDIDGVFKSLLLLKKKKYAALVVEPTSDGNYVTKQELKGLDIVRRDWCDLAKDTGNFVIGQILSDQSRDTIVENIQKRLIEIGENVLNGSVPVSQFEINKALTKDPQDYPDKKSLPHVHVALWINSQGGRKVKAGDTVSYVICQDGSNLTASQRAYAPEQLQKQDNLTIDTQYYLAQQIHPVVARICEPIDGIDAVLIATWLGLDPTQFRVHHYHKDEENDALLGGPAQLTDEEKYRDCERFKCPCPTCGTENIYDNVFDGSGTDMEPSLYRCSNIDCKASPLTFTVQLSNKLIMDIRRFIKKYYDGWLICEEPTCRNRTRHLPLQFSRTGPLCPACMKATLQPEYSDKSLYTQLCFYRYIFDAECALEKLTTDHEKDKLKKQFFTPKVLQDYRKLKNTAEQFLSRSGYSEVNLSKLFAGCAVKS
In words: Test III Inhibition of cellular DNA polymerase alpha by triphosphates. To be noted: cellular DNAPα; read-out: Concentration for 50% inhibition (IC50) of DNAPα. Format: biochemical.
Source text: as §1, §2

Series [4] can be described thus: Test II Cellular toxicity on F5000 cells (cell number after 48 h). In kind it is cell-based, human. To be noted: human, read-out: % inhibition of cell multiplication, F 5000. The procedure: (§3) Test II Cellular toxicity
(§4) F5000 cells, which are human embryo cells, 1×10^5 cells per plate, are incubated in Eagle's minimal essential medium, supplemented with Earle's salts, non-essential amino acids, 10% fetal calf serum, 10 mM hepes, 70 mg/l penicillin and 100 mg/l streptomycin, in absence or presence of test compounds. The number of cells per plate is determined after 48 h.

Series [5] is described as follows: Test II Cellular toxicity on H9 cells (cell number after 48 h). Format: cell-based. To be noted: human, read-out: % inhibition of cell multiplication, H9.
Another series has as its system HIV (HTLV-IIIB). In words: Test I Effect of compounds on HIV in H9 cells (frequency of HIV antigen containing cells). Format: cell-based. The procedure:
Test I Effect of compounds of the formula I on HIV in H9 cells
Materials and methods: HIV infection of H9 cells
H9 cells, 10^5 cells per well on a 24 well plate, suspended in 2 ml RPMI-medium containing 10% fetal calf serum, 100 μg/ml pencillin, 10 μg/ml streptomycin sulfate and 2 μg/ml polybrene are exposed to HIV (HTLV-IIIB) and different concentrations of the test compounds. The plates are incubated at 37° C. in 5% CO2 for 6-7 days. The contents in each well is then homogenized with a pipette and transferred to a centrifuge tube. After centrifugation for 10 min at 1500 rpm the supernatant is removed and the cell pellet is analyzed by fixing in methanol on glass plates. Human HIV positive serum diluted 1:80 or 1:160 is added and incubated for 30 min at 37° C. The plate is then washed with phosphate-buffered saline (PBS) containing Ca^2+ and Mg^2 +. Sheep antihuman conjugate (FITC) is added and after a new incubation the plate is again washed with PBS. Contrast staining is done with Evans blue and after drying the frequency of HIV antigen containing cells is determined in a microscope.

A further series relates to F5000 cells. As to the kind of experiment: Test II Cellular toxicity on F5000 cells (cell number after 48 h). Format: cell-based, human. To be noted: 100 μM. The procedure:
as §3, §4

The subject of another series is H9 cells. In words: Test II Cellular toxicity on H9 cells (cell number after 48 h). Format: cell-based. Conditions: 200 μM.
Setting [6] is: Human immunodeficiency virus 1, H9 cells, HIV (HTLV-IIIB), 6-7 days, read-out: Concentration for 50% inhibition (IC50) of human immuno deficiency virus multiplication in cell culture.
The mark [7] stands for this setting: Human immunodeficiency virus 1, IIIB, H9, read-out: Concentration for 50% inhibition (IC50) of human immuno deficiency virus multiplication in cell culture.

Where two headings read alike, the source gives them in different places.

Chain of Herpes simplex virus type 2 DNA polymerase (P89453 whole entry): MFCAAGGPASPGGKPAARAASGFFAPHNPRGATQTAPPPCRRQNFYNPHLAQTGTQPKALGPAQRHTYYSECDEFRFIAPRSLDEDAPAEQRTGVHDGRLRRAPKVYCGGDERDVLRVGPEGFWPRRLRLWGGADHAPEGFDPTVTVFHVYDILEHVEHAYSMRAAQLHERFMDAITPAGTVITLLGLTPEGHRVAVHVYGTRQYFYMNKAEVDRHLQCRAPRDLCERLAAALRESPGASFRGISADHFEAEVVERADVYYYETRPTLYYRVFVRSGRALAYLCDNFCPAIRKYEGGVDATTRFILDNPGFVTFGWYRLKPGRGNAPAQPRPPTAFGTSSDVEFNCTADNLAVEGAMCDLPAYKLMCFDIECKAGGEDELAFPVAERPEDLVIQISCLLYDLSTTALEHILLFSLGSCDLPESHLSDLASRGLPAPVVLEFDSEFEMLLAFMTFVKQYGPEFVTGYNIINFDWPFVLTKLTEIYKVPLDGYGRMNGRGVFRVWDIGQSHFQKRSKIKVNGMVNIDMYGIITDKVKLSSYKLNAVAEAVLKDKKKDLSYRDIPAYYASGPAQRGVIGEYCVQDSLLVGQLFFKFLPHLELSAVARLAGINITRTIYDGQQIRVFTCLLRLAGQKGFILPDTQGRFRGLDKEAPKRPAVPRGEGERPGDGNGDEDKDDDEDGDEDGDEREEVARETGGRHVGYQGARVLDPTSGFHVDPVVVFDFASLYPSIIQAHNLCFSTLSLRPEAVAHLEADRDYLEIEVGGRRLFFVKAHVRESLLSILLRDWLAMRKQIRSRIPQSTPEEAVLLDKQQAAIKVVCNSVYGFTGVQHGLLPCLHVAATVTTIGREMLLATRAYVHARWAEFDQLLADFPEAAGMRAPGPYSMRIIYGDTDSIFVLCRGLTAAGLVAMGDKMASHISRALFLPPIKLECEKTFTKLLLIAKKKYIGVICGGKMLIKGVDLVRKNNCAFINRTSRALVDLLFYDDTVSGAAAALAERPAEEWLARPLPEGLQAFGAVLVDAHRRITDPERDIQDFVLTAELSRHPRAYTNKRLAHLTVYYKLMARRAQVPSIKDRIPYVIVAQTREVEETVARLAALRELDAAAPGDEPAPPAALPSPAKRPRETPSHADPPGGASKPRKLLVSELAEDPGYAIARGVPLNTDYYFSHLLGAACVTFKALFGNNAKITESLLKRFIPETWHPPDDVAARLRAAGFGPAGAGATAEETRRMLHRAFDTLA
T1 sequence (P03156 whole entry): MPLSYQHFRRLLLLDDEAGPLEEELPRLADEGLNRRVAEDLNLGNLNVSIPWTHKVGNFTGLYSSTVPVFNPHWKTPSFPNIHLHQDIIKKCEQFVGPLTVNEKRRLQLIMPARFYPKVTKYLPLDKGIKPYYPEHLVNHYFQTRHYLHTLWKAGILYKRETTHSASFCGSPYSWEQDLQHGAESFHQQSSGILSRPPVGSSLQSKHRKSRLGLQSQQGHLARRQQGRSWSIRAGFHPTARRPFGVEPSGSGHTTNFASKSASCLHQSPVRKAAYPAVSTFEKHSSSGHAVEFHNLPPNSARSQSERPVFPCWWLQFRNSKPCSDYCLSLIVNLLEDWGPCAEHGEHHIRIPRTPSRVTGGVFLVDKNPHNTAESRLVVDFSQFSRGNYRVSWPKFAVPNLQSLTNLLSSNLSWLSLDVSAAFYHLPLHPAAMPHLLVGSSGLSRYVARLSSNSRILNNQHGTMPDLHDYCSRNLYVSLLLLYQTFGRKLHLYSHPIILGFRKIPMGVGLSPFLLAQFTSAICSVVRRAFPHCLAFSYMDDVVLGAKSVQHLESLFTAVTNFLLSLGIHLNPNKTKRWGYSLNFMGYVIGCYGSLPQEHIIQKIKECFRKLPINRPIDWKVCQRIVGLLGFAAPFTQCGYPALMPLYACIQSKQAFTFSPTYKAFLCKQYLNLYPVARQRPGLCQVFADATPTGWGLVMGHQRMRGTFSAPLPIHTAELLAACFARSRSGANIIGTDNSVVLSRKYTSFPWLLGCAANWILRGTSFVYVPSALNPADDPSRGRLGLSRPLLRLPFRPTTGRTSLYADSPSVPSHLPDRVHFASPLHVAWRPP

Turning to `O=c1[nH]c(=O)n([C@@H]2C[C@H](O)[C@@H](COP(=O)(O)OP(=O)(O)OP(=O)(O)O)O2)cc1-c1cccs1` [1-(2-Deoxy-alpha-D-ribofuranasyl)-5-(2-thienyl)uracil-5'-triphosphate], the IC50 was determined as 18000 nM in series [1], 11000 nM in [2], 2000 nM in [3] and 80000 nM on DNA polymerase alpha.

As to `O=c1[nH]c(=O)n([C@H]2C[C@H](O)[C@@H](COP(=O)(O)OP(=O)(O)OP(=O)(O)O)O2)cc1-c1cccs1` [1-(2-Deoxy-beta-D-ribofuranosyl)-5-(2-thienyl)uracil-5'-triphosphate], the IC50 in series [1] was 110 nM; in series [2] it was 60 nM; in [3], 15 nM; on DNA polymerase alpha, 1600 nM.

As a reminder, the inhibition is the share of the control response that was lost under treatment. Regarding `O=c1[nH]c(=O)n([C@@H]2C[C@H](O)[C@@H](CO)O2)cc1-c1cccs1` [VSA 134, 1-(2-Deoxy-alpha-D-ribofuranosyl)-5-(2-thienyl)uracil], in series [4] (100 μM), the inhibition at 48 h, 100 µM is 0 to 35%. The inhibition at 48 h, 250 µM in [5] (250 μM) was found to be 35%. In addition, the IC50 with HIV (HTLV-IIIB) (setting [6]) is 50 to 10000 nM.

For `O=c1[nH]c(=O)n([C@@H]2C[C@H](O)[C@@H](CO)O2)cc1-c1ccc[se]1` [VSA 188], the inhibition at 48 h, 200 µM in series [4] was found to be 15%; in series [5] it was 40%. For the same molecule, in the series on HIV (HTLV-IIIB) (setting [7]), the IC50 was in the range of 2000 to 20000 nM.

Take `O=c1[nH]c(=O)n([C@H]2C[C@H](O)[C@@H](CO)O2)cc1-c1cccs1` [VSA 189]: in the series on F5000 cells, the “% inhibition of cell multiplication, F 5000” value stood at 10%. For the same molecule, in the series on H9 cells, the “% inhibition of cell multiplication, H9” value is on record as 35%.

For `O=c1[nH]c(=O)n([C@H]2C[C@H](O)[C@@H](CO)O2)cc1-c1cc[se]c1` [VSA 992], the inhibition at 48 h, 200 µM in [4] was found to be 0%; in series [5] it was 40%.

In the case of `O=c1[nH]c(=O)n([C@@H]2C[C@H](O)[C@@H](CO)O2)cc1-c1cc[se]c1` [VSA 996], the results for the inhibition at 48 h, 200 µM in series [4] and in [5] were 30% and 65%, respectively. For the same molecule, the IC50 with HIV (HTLV-IIIB) (setting [7]) lay in the range of 3000 to 100000 nM.

As for `O=c1[nH]c(=O)n([C@@H]2C[C@H](O)[C@@H](CO)O2)cc1-c1ccco1` [VSB 007, 1-(2-Deoxy-alpha-D-ribofuranosyl)-5-(2-furyl)uracil], the IC50 in the series with HIV (HTLV-IIIB) (setting [6]) is less than 10000 nM.

Take `O=c1[nH]c(=O)n([C@H]2C[C@H](O)[C@@H](CO)O2)cc1-c1ccco1` [VSB 008, 1-(2-Deoxy-beta-D-ribofuranosyl)-5-(2-furyl)uracil]: in series [4], the inhibition at 48 h, 200 µM amounted to 0%.
